Results taken from patent US5137920A, “Method of treating fungal infections” (Hoffmann-La Roche Inc., priority 1989, dated 1992).
Where a name gives a salt, the structure may show the parent alone. Read-outs that look alike come from different tables or passages of the source.

Key:
[1] = target: T1, 2,3-epoxysqualene-lanosterol cyclase (Candida albicans, UniProt Q04782); test: Inhibition of 2,3-epoxysqualene-lanosterol cyclase from Candida albicans (14C-squalene epoxide, cell-free extract); format: biochemical
T1 construct: there was obtained a cell-free extract (CFE) as the supernatant; endogenous in cells; host or cells: Candida albicans culture (cell-free extract, 10000 g supernatant of ruptured protoplasts)

[2] = Acute toxicity in the case of subcutaneous administration to mice; details: mouse, in vivo, sc
Protocol: The IC50 values were determined graphically and are given in μg of test substance per ml. Table I contains IC50 values determined in the above test for representative members of the class of compound defined by formula I as well as data concerning the acute toxicity in the case of subcutaneous administration to mice (LD50 in mg/kg).

Candida albicans = test: Agar dilution method, application alone and in combination with ketoconazole (synergistic activity); format: cell-based; details: for FIC (fractional inhibitory concentration): Compound 1 + ketoconazole, synergistic if <0.5; for MIC: Candida albicans, 48 h, casitone agar, 37° C., 2 days
[3] = C. albicans cell-free extract, pH 6.9, 30°, 1 hour, read-out: IC50 (converted)

T1 sequence (Q04782 whole entry): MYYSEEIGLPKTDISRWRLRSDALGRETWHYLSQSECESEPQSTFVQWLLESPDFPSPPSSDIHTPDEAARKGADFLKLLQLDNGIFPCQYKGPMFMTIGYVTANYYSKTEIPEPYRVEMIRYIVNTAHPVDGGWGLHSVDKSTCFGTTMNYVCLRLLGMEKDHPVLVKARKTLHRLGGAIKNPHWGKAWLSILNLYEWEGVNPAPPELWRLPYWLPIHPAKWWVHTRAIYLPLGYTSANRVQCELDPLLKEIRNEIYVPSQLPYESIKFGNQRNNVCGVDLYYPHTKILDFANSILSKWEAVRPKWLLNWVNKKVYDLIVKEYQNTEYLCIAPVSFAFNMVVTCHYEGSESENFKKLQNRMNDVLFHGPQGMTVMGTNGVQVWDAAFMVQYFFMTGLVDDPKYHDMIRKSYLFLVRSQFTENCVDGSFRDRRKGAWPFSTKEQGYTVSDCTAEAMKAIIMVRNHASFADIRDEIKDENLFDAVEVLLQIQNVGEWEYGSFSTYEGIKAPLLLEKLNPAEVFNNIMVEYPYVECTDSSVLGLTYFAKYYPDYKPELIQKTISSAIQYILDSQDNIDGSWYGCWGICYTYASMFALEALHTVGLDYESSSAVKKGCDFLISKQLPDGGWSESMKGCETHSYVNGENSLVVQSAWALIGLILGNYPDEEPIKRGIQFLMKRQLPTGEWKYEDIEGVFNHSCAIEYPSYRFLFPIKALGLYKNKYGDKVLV

**Q.** What does the source list for `CN(C)CCCCCCCc1ccc(C(=O)c2ccccc2)cc1` [Compound 1, 4-[7-(dimethylamino)heptyl]benzophenone]?
**A.** IC50 [1]: 526 nM; LD50 [2]: 312 to 625 mg/kg; FIC (fractional inhibitory concentration) (Candida albicans; C. albicans B4): 0.06; MIC in combination (Candida albicans; C. albicans B4, Compound 1 in combination with ketoconazole): 1.2 µg/mL; FIC (fractional inhibitory concentration) (Candida albicans; C. albicans B5): 0.53; MIC in combination (Candida albicans; C. albicans B5, Compound 1 in combination with ketoconazole): 1.2 µg/mL; FIC (fractional inhibitory concentration) (Candida albicans; C. albicans H12): 0.19; MIC in combination (Candida albicans; C. albicans H12, Compound 1 in combination with ketoconazole): 2.5 µg/mL; FIC (fractional inhibitory concentration) (Candida albicans; C. albicans H29): 0.19; MIC in combination (Candida albicans; C. albicans H29, Compound 1 in combination with ketoconazole): 1.2 µg/mL; FIC (fractional inhibitory concentration) (Candida albicans; C. albicans H42): 0.005; MIC in combination (Candida albicans; C. albicans H42, Compound 1 in combination with ketoconazole): 1.2 µg/mL; MIC (Candida albicans; C. albicans B4, Compound 1 alone): 20 µg/mL; MIC (Candida albicans; C. albicans B5, Compound 1 alone): 20 µg/mL; MIC (Candida albicans; C. albicans H12, Compound 1 alone): 20 µg/mL; MIC (Candida albicans; C. albicans H29, Compound 1 alone): 10 µg/mL; MIC (Candida albicans; C. albicans H42, Compound 1 alone): 20 µg/mL; synergistic activity (Candida albicans; in combination with ketoconazole, C. albicans): confirms the synergistic activity

**Q.** With `CN(C)CCCCCCCc1ccc(C(=O)Cc2ccccc2)cc1` [Compound 2, 4'-[7-(dimethylamino)heptyl]-2-phenylacetophenone] as the molecule, how does the IC50 [1, 3] read?
**A.** Its IC50 is 1420 nM.

**Q.** For `CN(C)CCCCCCCc1ccc(C(=O)c2ccc(F)cc2)cc1` [Compound 3, 4'-fluoro-4-[7-(dimethylamino)heptyl]benzophenone], which IC50 [1, 3] is on record?
**A.** Its IC50 is 1230 nM.

**Q.** Which IC50 [1, 3] does the source give for `CN(C)CCCCCCCc1ccc(C(=O)c2ccc(C(F)(F)F)cc2)cc1` [Compound 4, 4-[7-(dimethylamino)heptyl]-4'-(trifluoromethyl)benzophenone] here?
**A.** The IC50 was 3450 nM.

**Q.** With `CN(C)CCCCCCCc1ccc(C(=O)c2ccc(F)cc2F)cc1` [Compound 5, 2,4-difluoro-4'-[7-(dimethylamino)heptyl]benzophenone] as the molecule, how does the IC50 [1, 3] read?
**A.** Its IC50 is 1530 nM.

**Q.** With `CN(C)CCCc1ccc(C(=O)/C=C/c2ccc(Cl)cc2)cc1` [Compound 6, (E)-3-(4-chlorophenyl)-4'-[3-(dimethylamino)propyl]acrylophenone] as the molecule, how does the IC50 [1, 3] read?
**A.** Its IC50 is 3660 nM.

**Q.** Which IC50 [1, 3] does the source give for `CN(C)CCCc1ccc(C(=O)CCc2ccc(Cl)cc2)cc1` [Compound 7, 3-(4-chlorophenyl)-4'-[3-(dimethylamino)propyl]propiophenone hydrochloride] here?
**A.** Its IC50 is 1090 nM.

**Q.** Which IC50 [1, 3] does the source give for `CN(C)CCCc1ccc(C(=O)CCc2ccc(F)cc2)cc1` [Compound 8, 3-(4-fluorophenyl)-4'-[3-(dimethylamino)propyl]propiophenone] here?
**A.** Its IC50 is 1750 nM.

**Q.** With `Cc1ccccc1CCC(=O)c1ccc(CCCN(C)C)cc1` [Compound 9, 3-(2-methylphenyl)-4'-[3-(dimethylamino)propyl]propiophenone] as the molecule, how does the IC50 [1, 3] read?
**A.** Its IC50 is 355 nM.

**Q.** With `CN(C)CCCc1ccc(C(=O)CCc2cccc(Cl)c2)cc1` [Compound 10, 3-(3-chlorophenyl)-4'-[3-(dimethylamino)propyl]propiophenone] as the molecule, how does the IC50 [1, 3] read?
**A.** Its IC50 is 1330 nM.

**Q.** With `CN(C)CCCc1ccc(C(=O)CCc2ccc([N+](=O)[O-])cc2)cc1` [Compound 11] as the molecule, how does the IC50 [1, 3] read?
**A.** Its IC50 is 823 nM.

**Q.** For `O=C(/C=C/c1ccccc1)c1ccc(CCCN2CCCC2)cc1` [Compound 12, (E)-3-phenyl-4'-[3-(1-pyrrolidinyl)propyl]acrylophenone], which IC50 [1, 3] is on record?
**A.** Its IC50 is 783 nM.

**Q.** With `O=C(CCc1ccccc1)c1ccc(CCCN2CCCC2)cc1` [Compound 13, 3-phenyl-4'-[3-(1-pyrrolidinyl)propyl]propiophenone] as the molecule, how does the IC50 [1, 3] read?
**A.** Its IC50 is 1240 nM.

**Q.** With `CN(C)CCCc1ccc(C(=O)c2ccccc2)cc1` [Compound 14] as the molecule, how does the IC50 [1, 3] read?
**A.** Its IC50 is 18700 nM.

**Q.** For `CN(C)CCCCCCCCc1ccc(C(=O)c2ccccc2)cc1` [Compound 15], which IC50 [1, 3] is on record?
**A.** The IC50 was 1210 nM.

**Q.** Which IC50 [1, 3] does the source give for `CN(C)CCCCCCCCc1ccc(C(=O)c2ccccc2)cc1` [Compound 16, 4-[8-(Dimethylamino)octyl]benzophenone] here?
**A.** The IC50 was 415 nM.

**Q.** Which IC50 [1, 3] does the source give for `CN(C)CCCCCCCc1ccc(C(=O)c2ccc(Cl)cc2)cc1` [Compound 17, 4-chloro-4'-[7-(dimethylamino)heptyl]benzophenone] here?
**A.** Its IC50 is 1370 nM.

**Q.** Which IC50 [1, 3] does the source give for `CN(C)CCCCCCCc1ccc(C(=O)c2ccc(Br)cc2)cc1` [Compound 18, 4-Bromo-4'-[7-(dimethylamino)heptyl]benzophenone] here?
**A.** The IC50 was 2140 nM.

**Q.** Which IC50 [1, 3] does the source give for `CN(C)CCCCCCCc1ccc(C(=O)c2ccc(Cl)cc2Cl)cc1` [Compound 19, 2,4-Dichloro-4'-[7-(dimethylamino)heptyl]benzophenone] here?
**A.** The IC50 was 1910 nM.

**Q.** For `CN(C)CCCCCCCc1ccc(C(=O)c2ccc(C#N)cc2)cc1` [Compound 20], which IC50 [1, 3] is on record?
**A.** The IC50 was 746 nM.

**Q.** Which IC50 [1] does the source give for `C=CCN(C)CCCCCCCc1ccc(C(=O)c2ccccc2)cc1` [Compound 21, 4-[7-(Allylmethylamino)heptyl]benzophenone] here?
**A.** Its IC50 is 143 nM.

**Q.** Which IC50 [1] does the source give for `C=CCN(C)CCCCCCCc1ccc(C(=O)c2ccc(Br)cc2)cc1` [Compound 22, 4-[7-(Allylmethylamino)heptyl]-4'-bromobenzophenone] here?
**A.** Its IC50 is 443 nM.

**Q.** With `C=CCN(C)CCCCCCCc1ccc(C(=O)c2ccc(C#N)cc2)cc1` [Compound 23, 4-[4'-[7-(Allylmethylamino)heptyl]benzoyl]benzonitrile] as the molecule, how does the IC50 [1] read?
**A.** The IC50 was 160 nM.

**Q.** Which IC50 [1] does the source give for `C=CCN(C)CCCCCCc1ccc(C(=O)c2ccc(Br)cc2)cc1` [Compound 24, 4-[6-(Allylmethylamino)hexyl]-4'-bromobenzophenone] here?
**A.** The IC50 was 229 nM.

**Q.** And the LD50 [2]?
**A.** Its LD50 is 312 to 625 mg/kg.

**Q.** With `CN(C)CCCCCCc1ccc(C(=O)c2ccc(Br)cc2)cc1` [Compound 25, 4-Bromo-4'-[6-(dimethylamino)hexyl]benzophenone hydrochloride] as the molecule, how does the IC50 [1, 3] read?
**A.** The IC50 was 2170 nM.

**Q.** Which IC50 [1, 3] does the source give for `CN(C)CCCCCCc1ccc(C(=O)c2cccc(Br)c2)cc1` [Compound 26, 3-Bromo-4'-[6-(dimethylamino)hexyl]benzophenone] here?
**A.** The IC50 was 1080 nM.

**Q.** For `Cc1ccccc1C(=O)c1ccc(CCCCCCN(C)C)cc1` [Compound 27, 4-[6-(Dimethylamino)hexyl]-2'-methylbenzophenone], which IC50 [1, 3] is on record?
**A.** Its IC50 is 495 nM.

**Q.** Which IC50 [1, 3] does the source give for `CN(C)CCCCCCc1ccc(C(=O)c2ccc([N+](=O)[O-])cc2)cc1` [Compound 28, 4-[6-(Dimethylamino)hexyl]-4'-nitrobenzophenone] here?
**A.** The IC50 was 592 nM.

**Q.** With `CN(C)CCCCCCc1ccc(C(=O)c2ccccc2Cl)cc1` [Compound 29, 2-Chloro-4'-[6-(dimethylamino)hexyl]benzophenone] as the molecule, how does the IC50 [1, 3] read?
**A.** The IC50 was 320 nM.

**Q.** With `CC(=O)N1CCN(c2ccc(OCC3COC(Cn4ccnc4)(c4ccc(Cl)cc4Cl)O3)cc2)CC1` (stereo not drawn) [Ketoconazole, reference compound] as the molecule, how does the MIC in combination (Candida albicans; C. albicans B4, Ketoconazole in combination with Compound 1) read?
**A.** The MIC in combination was 0.15 µg/mL.

**Q.** What about the MIC in combination (Candida albicans; C. albicans B5, Ketoconazole in combination with Compound 1) of the same molecule?
**A.** Its MIC in combination is 0.075 µg/mL.

**Q.** And the MIC in combination (Candida albicans; C. albicans H12, Ketoconazole in combination with Compound 1)?
**A.** The MIC in combination was 0.3 µg/mL.

**Q.** What about the MIC in combination (Candida albicans; C. albicans H29, Ketoconazole in combination with Compound 1) of the same molecule?
**A.** Its MIC in combination is 0.075 µg/mL.

**Q.** And the MIC in combination (Candida albicans; C. albicans H42, Ketoconazole in combination with Compound 1)?
**A.** The MIC in combination was 0.15 µg/mL.

**Q.** What about the MIC (Candida albicans; C. albicans B4, Ketoconazole alone) of the same molecule?
**A.** The MIC was 2.5 µg/mL.

**Q.** What about the MIC (Candida albicans; C. albicans B5, Ketoconazole alone) of the same molecule?
**A.** The MIC was 0.15 µg/mL.

**Q.** What about the MIC (Candida albicans; C. albicans H12, Ketoconazole alone) of the same molecule?
**A.** The MIC was 5 µg/mL.

**Q.** What about the MIC (Candida albicans; C. albicans H29, Ketoconazole alone) of the same molecule?
**A.** The MIC was 1.29 µg/mL.

**Q.** What about the MIC (Candida albicans; C. albicans H42, Ketoconazole alone) of the same molecule?
**A.** Its MIC is 5 µg/mL.
